{
  "source": "patent US12440476B2",
  "about": "“Agents that target telomerase reverse transcriptase (TERT) for treating cancer and sensitizing cancer cells to genotoxic therapy” (Northwestern University, priority 2022, dated 2025)",
  "key": {"[1]": {"tested_on": "CT26 cells", "test": "Clonogenicity assay (inhibitor alone)", "type": "cell-based, mouse", "conditions": "1 μM NU-1, 2 μM MST, 20 μM BIBR", "method": "MCF7, Saos-2, or CT26 cells were seeded in 6-well plates at 100 cells per well in triplicate and allowed to attach overnight. MCF7 or CT26 cells were then treated with DMSO vehicle or TERT inhibitors in final concentration of 0.25, 0.5, 0.75, 1, 2 μM for NU-1, 2.5, 5, 7.5, 10, 20 μM for BIBR 1532, or 1, 2, 3, 4, 5 μM for MST-312. Saos-2 cells were treated with DMSO vehicle or TERT inhibitors in final concentration of 0.25, 0.5, 0.75, 1, 2 μM for NU-1 or 2.5, 5, 10, 20, 40 μM for BIBR 1532. The final volume of cell culture medium was 3 mL per well. MCF7 and Saos-2 cells were continuously cultured for 3 weeks and CT26 for 2 weeks in the presence of TERT inhibitors, fixed in methanol for 5 min, then stained with 0.5% crystal violet for 10 min at room temperature. After washing with water, the plates were dried at room temperature and imaged with an iBright Imaging System (Thermo Fisher Scientific)."}, "[2]": {"tested_on": "CT26 cells", "test": "Clonogenic survival after irradiation (radiosensitivity)", "type": "cell-based, mouse", "method": "To assess radiosensitivity, MCF7, Saos-2, or CT26 cells were seeded in 6-well plates at 100 cells per well in triplicate, allowed to attach overnight and treated with DMSO or TERT inhibitors at subtoxic concentrations for 1 h prior to IR. MCF7 cells were treated with 0.5 μM NU-1, 10 μM BIBR 1532, or 1 μM MST-312, Saos-2 cells with 1 μM NU-1 or 20 μM BIBR 1532 and CT26 cells with 1 μM NU-1, 20 μM BIBR 1532 or 2 μM MST-312. Doses of 0, 1, 2, 3, 4, or 5 Gy were applied using a GammaCell ^60Co γ-ray source (Nordion) at a dose rate of 7.09 cGy/sec. After that MCF7 and Saos-2 cells were cultured for 3 weeks and CT26 for 2 weeks, then fixed and stained with crystal violet. Colonies of at least 50 cells were counted. Data from three independent biological replicates were acquired. The surviving fraction (SF) was calculated using the following formula: […]"}, "[3]": {"tested_on": "A549 cells", "conditions": "cited from earlier work"}},
  "data": [
    {"smiles": "C=C1C(=O)[C@](C)(C(=O)OC)[C@H](CCc2cn(Cc3ccc(F)cc3F)nn2)O[C@@H]1C", "note": "[NU-1]", "values": [
      {"measurement": "Tolerance in clonogenic assay (inhibitor alone)", "setting": "[1]", "result": "tolerated"},
      {"measurement": "Sensitization of CT26 cells to radiation", "setting": "[2]; CT26, non-toxic doses", "result": "sensitized CT26 cells to radiation"},
      {"measurement": "Mean SF2 (surviving fraction at 2 Gy)", "setting": "[2]; CT26 cells, NU-1 1 μM, BIBR 1532 20 μM, MST-312 2 μM for 1 h prior to IR, 2 Gy", "result": 0.322},
      {"measurement": "LD50", "setting": "[3]", "result": 35, "unit": "µM"}
    ]}
  ]
}
